The target of one assay is T1, KRas^G12V (Homo sapiens, UniProt P01116, G12V).
T1 construct: Biotinylated KRas (corresponding to amino acids 1-169, produced at Accelegan Inc.); biotin (biotinylated); purchased Accelegan Inc
Briefly: KRas binding assay (TR-FRET tracer displacement), KRas G12V. (Time-resolved FRET reads energy transfer from a long-lived donor to a nearby acceptor.)

In another assay the target is T2, KRas^G12D (Homo sapiens, UniProt P01116, G12D).
T2 construct: Biotinylated KRas (corresponding to amino acids 1-169, produced at Accelegan Inc.); biotin (biotinylated); purchased Accelegan Inc
Briefly: KRas binding assay (TR-FRET tracer displacement), KRas G12D.

Assay [1] has as its system KRas-mediated phosphorylation of ERK in AsPC-1 cells. Briefly: Inhibition of KRas-mediated phosphorylation of ERK (Cisbio HTRF pERK), AsPC-1 cells. Type of assay: cell-based. The conditions noted are these: Homo sapiens, ASPC1, AsPC-1 cells; HTRF pERK. In short, it runs like this: (§1)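 H358, H727, H460 and AsPC-1 cells seeded at 6,000/well, treated 3 hrs with 10-dose 3-fold dilutions from 10 uM (0.8% DMSO); 0.2 uM trametinib as min control. Lysed 40 min at 4° C; lysate incubated 2 hrs at room temperature with d2/cryptate antibodies, HTRF read.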

The subject of assay [2] is KRas-mediated phosphorylation of ERK in H727 cells. Briefly: Inhibition of KRas-mediated phosphorylation of ERK (Cisbio HTRF pERK), H727 cells. Type of assay: cell-based. The conditions noted are these: Homo sapiens, NCI-H727, H727 cells; HTRF pERK. In short, it runs like this: as §1
Assay [3] relates to KRas-mediated phosphorylation of ERK in MKN1 cells. Briefly: Inhibition of KRas-mediated phosphorylation of ERK (Cisbio HTRF pERK), MKN1 cells. Type of assay: cell-based. The conditions noted are these: Homo sapiens, MKN-1. In short, it runs like this:
(§2)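 Overnight culture at 37° C./5% CO2 in RPMI containing 10% FBS, seeded 6,000 cells per well, preceded the assay. A covered 4-hour incubation at room temperature followed, then HTRF signal for phosphorylated ERK was measured.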

Another assay concerns the target T3, KRas^G12R (Homo sapiens, UniProt P01116, G12R).
T3 construct: Biotinylated KRas (corresponding to amino acids 1-169, produced at Accelegan Inc.); biotin (biotinylated); purchased Accelegan Inc
Briefly: KRas binding assay (TR-FRET tracer displacement), KRas G12R.

The subject of assay [4] is KRas-mediated phosphorylation of ERK in PSN1 cells. Briefly: Inhibition of KRas-mediated phosphorylation of ERK (Cisbio HTRF pERK), PSN1 cells. Type of assay: cell-based. The conditions noted are these: Homo sapiens. In short, it runs like this:
as §2

One may read the IC50 as the concentration needed to halve the response being measured.

Structures are written as SMILES. Some results are limits rather than exact numbers.

T1 sequence (P01116 1-169 isoform P01116-2 G12V): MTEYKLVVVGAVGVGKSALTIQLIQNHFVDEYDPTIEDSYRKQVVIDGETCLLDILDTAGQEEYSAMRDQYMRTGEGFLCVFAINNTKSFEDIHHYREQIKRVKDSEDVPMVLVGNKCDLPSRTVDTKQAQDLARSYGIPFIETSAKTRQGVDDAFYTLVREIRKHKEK
T2 sequence (P01116 1-169 isoform P01116-2 G12D): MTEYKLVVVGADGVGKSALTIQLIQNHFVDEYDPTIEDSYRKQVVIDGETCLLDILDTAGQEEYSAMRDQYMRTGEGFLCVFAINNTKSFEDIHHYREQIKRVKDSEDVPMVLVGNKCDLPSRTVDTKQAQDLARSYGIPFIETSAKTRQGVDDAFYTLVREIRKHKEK
T3 sequence (P01116 1-169 isoform P01116-2 G12R): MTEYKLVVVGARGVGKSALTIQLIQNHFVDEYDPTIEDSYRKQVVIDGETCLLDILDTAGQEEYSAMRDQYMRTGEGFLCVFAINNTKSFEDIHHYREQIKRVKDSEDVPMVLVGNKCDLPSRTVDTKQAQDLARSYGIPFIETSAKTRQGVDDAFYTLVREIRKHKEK

With `O=S1(=O)CCC2(CCCN(c3nc(OC[C@@]45CCCN4C[C@H](F)C5)nc4c(F)c(-c5cc(O)cc6ccc(F)c(Cl)c56)ncc34)C2)N1` (stereo partly drawn) [Example 807, 7-(7-(8-chloro-7-fluoro-3-hydroxynaphthalen-1-yl)-8-fluoro-2-(((2R,7aS)-2-fluorotetrahydro-1H-pyrrolizin-7a(5H)-yl)methoxy)pyrido[4,3-d]pyrimidin-4-yl)-2-thia-1,7-diazaspiro[4.5]decane 2,2-dioxide], the 50% inhibitory concentration (IC50) was 3 nM at KRas^G12V; under 2 nM on KRas^G12D; 32 nM in assay [1]; 14 nM in assay [2]; 3 nM in assay [3]; under 2 nM on KRas^G12R. In addition, the concentration for half-maximal inhibition (IC50) in assay [4] came to 125 nM.

Take `Cc1cccc2cc3[nH]ncc3c(-c3ncc4c(N5CCCC6(CNS(=O)(=O)N6)C5)nc(OCC56CCCN5CCC6)nc4c3F)c12` (centres unmarked) [Example 808, 7-(8-fluoro-7-(5-methyl-1H-benzo[f]indazol-4-yl)-2-((tetrahydro-1H-pyrrolizin-7a(5H)-yl)methoxy)pyrido[4,3-d]pyrimidin-4-yl)-2-thia-1,3,7-triazaspiro[4.5]decane 2,2-dioxide]: the half-inhibitory concentration (IC50) is under 2 nM on KRas^G12V; under 2 nM on KRas^G12D; 3070 nM in assay [1]; 1690 nM in assay [2]; 653 nM in assay [3]; under 2 nM at KRas^G12R. The IC50 in assay [4] was over 10000 nM.

As for `CCc1c(F)ccc2cc(O)cc(-c3ncc4c(NCc5cc(C(=O)N(C)C)nn5C5COC5)nc(OC[C@@]56CCCN5C[C@H](F)C6)nc4c3F)c12` [Example 810, 5-(((7-(8-ethyl-7-fluoro-3-hydroxynaphthalen-1-yl)-8-fluoro-2-(((2R,7aS)-2-fluorotetrahydro-1H-pyrrolizin-7a(5H)-yl)methoxy)pyrido[4,3-d]pyrimidin-4-yl)amino)methyl)-N,N-dimethyl-1-(oxetan-3-yl)-1H-pyrazole-3-carboxamide], the half-maximal inhibitory concentration (IC50) is 4 nM at KRas^G12V; 13 nM on KRas^G12D; over 10000 nM in assay [1]; 4980 nM in assay [2]; 110 nM in assay [3]; 4 nM on KRas^G12R. Further, in assay [4], the IC50 was over 10000 nM.

For the compound `CCc1c(F)ccc2cc(O)c(F)c(-c3ncc4c(N5C[C@@H]6C[C@H](C5)[C@H](O)C6)nc(OC[C@@]56CCCN5C[C@H](F)C6)nc4c3F)c12` [Example 811, (1R,5R,6R)-3-(7-(8-ethyl-2,7-difluoro-3-hydroxynaphthalen-1-yl)-8-fluoro-2-(((2R,7aS)-2-fluorotetrahydro-1H-pyrrolizin-7a(5H)-yl)methoxy)pyrido[4,3-d]pyrimidin-4-yl)-3-azabicyclo[3.2.1]octan-6-ol], the IC50 at KRas^G12V came out at 2 nM; on KRas^G12D, 8 nM; in assay [1], 149 nM; in assay [2] it was 68 nM; in assay [3] it was 37 nM; at KRas^G12R, 4 nM. In addition, in assay [4], the IC50 was 5670 nM.

As for `C#Cc1c(F)ccc2cc(O)cc(-c3ncc4c(N5CCC[C@@](C)(O)C5)nc(OC[C@]56CCCN5[C@H](CO)CC6)nc4c3F)c12` [Example 814, (R)-1-(7-(8-ethynyl-7-fluoro-3-hydroxynaphthalen-1-yl)-8-fluoro-2-(((3S,7aR)-3-(hydroxymethyl)tetrahydro-1H-pyrrolizin-7a(5H)-yl)methoxy)pyrido[4,3-d]pyrimidin-4-yl)-3-methylpiperidin-3-ol], the IC50 at KRas^G12V is under 2 nM; on KRas^G12D, under 2 nM; in assay [1], 485 nM; in assay [2], 402 nM; in assay [3] it was 176 nM; at KRas^G12R, 3 nM. In assay [4], this compound yielded a half-maximal inhibitory concentration (IC50) of over 10000 nM.

Values taken from patent US20260015350A1, “AZAQUINAZOLINE PAN-KRAS INHIBITORS” (Mirati Therapeutics, Inc., priority 2022, published 2026).
